From patent publication US9167812B2, “Biocide compositions comprising amides based on 2-furoic acid and its derivatives” (Cognis IP Management GmbH, priority 2010, dated 2015)
Like-named read-outs stand apart in the source and are kept apart here.

What was measured:
[1] = Solubility in water of each amide; assay type: physicochemical
Method: (§1) Solubility of several pesticides was measured in THF amides versus other amides. In addition the solubility in water of each amide has been checked.

[2] = Solubility of pesticides in THF amides versus other amides; assay type: physicochemical
Method: as §1

[3] = solubility of the amide solvent in water

## CCCCN(CCCC)C(=O)c1ccco1 [Example 6, 2-Furoic acid dibutyl amide]
[1]; [3]
  Water solubility: Medium

## CCCCCCCCCC(=O)N(C)C [Example C3, C10 dimethyl amide, reference compound]
[1]; [3]
  Water solubility: Low
[2]; Epoxyconazole dissolved in the named solvent
  Solubility of biocides: Epoxyconazole: 8 % b.w.
[2]; Imidacloprid dissolved in the named solvent
  Solubility of biocides: Imidacloprid: 2 % b.w.
[2]; Oxyfluorfen dissolved in the named solvent
  Solubility of biocides: Oxyfluorfen: 27 % b.w.
[2]; Tebuconazole dissolved in the named solvent
  Solubility of biocides: Tebuconazole: 32 % b.w.

## CCCCN(CCCC)C(=O)C1CCCO1 (stereo not shown) [Example 8, 2-Tetrahydrofuroic Acid Dibutylamide]
[1]; [3]
  Water solubility: Medium

## CN(C)C(=O)C1CCCO1 (stereo not shown) [Example 7, THF dimethyl amide]
[1]
  Water solubility: High
[2]
  Solubility of biocides: Epoxyconazole: 10 % b.w.
  Solubility of biocides: Imidacloprid: 19 % b.w.
  Solubility of biocides: Oxyfluorfen: 31 % b.w.
  Solubility of biocides: Tebuconazole: 46 % b.w.

## CN(C)C(=O)c1ccco1 [Example 5, 2-Furoic acid dimethyl amide]
[1]; [3]
  Water solubility: Medium
